How the values were obtained:
FGFR3 = FGFR3 (Homo sapiens, UniProt P22607); conditions: J. Med. Chem. 2011, 54:7066-7083; cited from earlier work
[1] = system: RT112 bladder cancer cell line; conditions: J. Med. Chem. 2011, 54:7066-7083; cited from earlier work
[2] = system: KMS-11 (myeloma cell line); experiment: Pan-FGFR mutant cellular activity; assay type: cell-based; conditions: Homo sapiens, Table 4
Method: (§1) The inhibitory activity against pan-FGFR mutants of the compounds synthesized in Examples 1, 8, 13, 22, and 24 was measured, the inhibitory activity on each of enzymatic activity and cellular activity was evaluated, and the results are shown in Tables 3 and 4 below.

AN3-CA = experiment: Pan-FGFR mutant cellular activity; assay type: cell-based; conditions: Homo sapiens, mutant cell, Table 4, read-out: GI50, AN3-CA (breast cancer cell line)
Method: as §1

[3] = system: UMUC3 (bladder cancer cell line); experiment: Pan-FGFR mutant cellular activity; assay type: cell-based; conditions: Homo sapiens, Table 4
Method: as §1

[4] = system: J82 (bladder cancer cell line); experiment: Pan-FGFR mutant cellular activity; assay type: cell-based; conditions: Table 4
Method: as §1

[5] = system: AN3-CA, a uterine cancer cell line; experiment: Inhibitory activity against cancer cell proliferation (Experimental Example 2); assay type: cell-based; conditions: Homo sapiens, Table 2
Microsomal stability [6] = assay type: in vitro ADME; conditions: human liver microsomes, based on sample taken at 0 minutes
Microsomal stability [7] = assay type: in vitro ADME; conditions: dog liver microsomes, based on sample taken at 0 minutes
Microsomal stability [8] = assay type: in vitro ADME; conditions: rat liver microsomes, based on sample taken at 0 minutes
CYP3A4 = CYP3A4 (Homo sapiens, UniProt P08684); experiment: Inhibitory activity against CYP metabolic enzyme; assay type: in vitro ADME
Method: (§2) In order to determine whether or not there is a possibility that the compounds synthesized in Examples 1, 22, and 24 of the present invention can cause side effects of drug interaction, the rate (%) of inhibition against 5 major metabolic enzymes (CYP1A2, CYP2C9, CYP2C19, CYP2D6, and CYP3A4) among CYPs (cytochrome P450), which are enzymes involved in oxidative metabolism of drugs, was measured. […] That is, it can be seen that the compound of the present invention has a low possibility of causing side effects of drug interaction.

CYP1A2 = biological target: T1, CYP1A2 (Homo sapiens, UniProt P05177); experiment: Inhibitory activity against CYP metabolic enzyme; assay type: in vitro ADME
T1 sequence (P05177 1-516): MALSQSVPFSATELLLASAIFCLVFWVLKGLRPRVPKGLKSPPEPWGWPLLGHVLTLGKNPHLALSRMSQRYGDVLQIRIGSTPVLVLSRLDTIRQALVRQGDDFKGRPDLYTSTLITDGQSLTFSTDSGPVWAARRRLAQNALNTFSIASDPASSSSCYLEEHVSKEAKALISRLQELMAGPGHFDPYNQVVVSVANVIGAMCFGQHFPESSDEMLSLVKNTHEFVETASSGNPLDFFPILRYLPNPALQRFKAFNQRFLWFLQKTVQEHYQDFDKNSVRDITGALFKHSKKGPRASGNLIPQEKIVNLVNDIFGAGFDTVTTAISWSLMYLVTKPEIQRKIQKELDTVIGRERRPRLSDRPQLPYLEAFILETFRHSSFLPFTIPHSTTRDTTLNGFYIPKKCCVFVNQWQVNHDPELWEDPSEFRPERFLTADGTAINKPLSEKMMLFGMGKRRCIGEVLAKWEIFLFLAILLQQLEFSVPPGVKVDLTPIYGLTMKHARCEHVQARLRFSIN
Method: as §2

CYP2D6 = CYP2D6 (Homo sapiens, UniProt P10635); experiment: Inhibitory activity against CYP metabolic enzyme; assay type: in vitro ADME
Method: as §2

CYP2C19 = CYP2C19 (Homo sapiens, UniProt P33261); experiment: Inhibitory activity against CYP metabolic enzyme; assay type: in vitro ADME
Method: as §2

CYP2C9 = CYP2C9 (Homo sapiens, UniProt P11712); experiment: Inhibitory activity against CYP metabolic enzyme; assay type: in vitro ADME
Method: as §2

Microsomal stability [9] = assay type: in vitro ADME; conditions: mouse liver microsomes, based on sample taken at 0 minutes
FGFR2 mutant (V564F) = FGFR2 mutant (V564F) (Homo sapiens, UniProt P21802, V564F); experiment: Pan-FGFR mutant enzymatic activity; assay type: biochemical; conditions: mutant enzyme
Method: as §1

FGFR2 mutant (N549H) = FGFR2 mutant (N549H) (Homo sapiens, UniProt P21802, N549H); experiment: Pan-FGFR mutant enzymatic activity; assay type: biochemical; conditions: mutant enzyme
Method: as §1

FGFR3 mutant (K650M) = FGFR3 mutant (K650M) (Homo sapiens, UniProt P22607, K650M); experiment: Pan-FGFR mutant enzymatic activity; assay type: biochemical; conditions: mutant enzyme
Method: as §1

FGFR3 mutant (V555M) = FGFR3 mutant (V555M) (Homo sapiens, UniProt P22607, V555M); experiment: Pan-FGFR mutant enzymatic activity; assay type: biochemical; conditions: mutant enzyme
Method: as §1

FGFR3 mutant (K650E) = FGFR3 mutant (K650E) (Homo sapiens, UniProt P22607, K650E); experiment: Pan-FGFR mutant enzymatic activity; assay type: biochemical; conditions: mutant enzyme
Method: as §1

[10] = In-vivo PK profile (mouse PK/ICR mice); conditions: plasma, ICR mice, PO 10 mg/kg

FGFR3 mutant (K650E), sequence (P22607 23-806 K650E): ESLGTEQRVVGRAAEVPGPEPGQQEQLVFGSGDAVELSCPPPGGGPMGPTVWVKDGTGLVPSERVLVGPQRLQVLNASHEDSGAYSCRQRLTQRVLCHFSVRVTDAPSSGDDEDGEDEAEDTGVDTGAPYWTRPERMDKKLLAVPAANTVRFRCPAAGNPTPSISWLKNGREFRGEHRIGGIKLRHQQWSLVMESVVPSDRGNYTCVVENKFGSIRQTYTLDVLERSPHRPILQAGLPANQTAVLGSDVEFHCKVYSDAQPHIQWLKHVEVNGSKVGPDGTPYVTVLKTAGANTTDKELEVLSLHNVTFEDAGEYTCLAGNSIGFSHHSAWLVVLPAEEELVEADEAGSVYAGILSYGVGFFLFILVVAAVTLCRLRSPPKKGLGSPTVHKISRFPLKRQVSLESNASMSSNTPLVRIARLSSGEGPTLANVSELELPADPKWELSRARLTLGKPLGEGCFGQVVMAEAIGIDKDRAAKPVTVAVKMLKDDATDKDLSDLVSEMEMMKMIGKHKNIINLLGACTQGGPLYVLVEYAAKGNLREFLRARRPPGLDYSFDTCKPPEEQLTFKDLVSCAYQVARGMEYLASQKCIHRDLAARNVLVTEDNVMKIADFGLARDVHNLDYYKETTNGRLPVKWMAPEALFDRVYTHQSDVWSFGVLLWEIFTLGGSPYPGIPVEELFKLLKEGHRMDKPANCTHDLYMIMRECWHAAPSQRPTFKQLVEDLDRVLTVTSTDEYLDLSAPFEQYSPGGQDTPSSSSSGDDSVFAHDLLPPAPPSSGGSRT
CYP2C19, sequence (P33261 whole entry): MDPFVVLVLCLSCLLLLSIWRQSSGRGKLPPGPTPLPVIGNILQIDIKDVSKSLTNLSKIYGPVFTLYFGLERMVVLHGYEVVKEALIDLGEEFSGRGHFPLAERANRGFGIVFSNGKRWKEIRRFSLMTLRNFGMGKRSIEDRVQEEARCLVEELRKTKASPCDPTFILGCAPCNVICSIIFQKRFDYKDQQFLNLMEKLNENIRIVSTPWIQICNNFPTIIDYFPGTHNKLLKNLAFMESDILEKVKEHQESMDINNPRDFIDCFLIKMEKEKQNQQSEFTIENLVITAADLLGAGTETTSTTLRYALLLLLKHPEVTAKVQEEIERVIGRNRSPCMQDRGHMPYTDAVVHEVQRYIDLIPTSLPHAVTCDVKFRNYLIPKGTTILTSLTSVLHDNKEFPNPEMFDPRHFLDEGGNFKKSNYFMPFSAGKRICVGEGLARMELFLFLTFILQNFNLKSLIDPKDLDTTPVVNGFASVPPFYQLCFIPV
CYP2D6, sequence (P10635 whole entry): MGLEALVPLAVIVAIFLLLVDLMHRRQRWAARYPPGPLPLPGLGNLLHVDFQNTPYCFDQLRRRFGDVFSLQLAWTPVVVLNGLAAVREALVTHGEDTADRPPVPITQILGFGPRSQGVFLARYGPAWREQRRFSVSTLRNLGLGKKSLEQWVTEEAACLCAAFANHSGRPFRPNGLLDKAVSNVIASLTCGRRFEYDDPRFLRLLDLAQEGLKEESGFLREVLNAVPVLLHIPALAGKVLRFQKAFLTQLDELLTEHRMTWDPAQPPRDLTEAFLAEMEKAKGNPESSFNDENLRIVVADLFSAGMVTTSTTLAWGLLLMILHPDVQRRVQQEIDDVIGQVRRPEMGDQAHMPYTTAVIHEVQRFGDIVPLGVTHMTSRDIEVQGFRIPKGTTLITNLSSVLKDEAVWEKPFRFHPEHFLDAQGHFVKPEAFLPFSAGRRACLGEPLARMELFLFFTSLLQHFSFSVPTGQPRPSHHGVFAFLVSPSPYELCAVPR
FGFR2 mutant (N549H), sequence (P21802 22-821 N549H): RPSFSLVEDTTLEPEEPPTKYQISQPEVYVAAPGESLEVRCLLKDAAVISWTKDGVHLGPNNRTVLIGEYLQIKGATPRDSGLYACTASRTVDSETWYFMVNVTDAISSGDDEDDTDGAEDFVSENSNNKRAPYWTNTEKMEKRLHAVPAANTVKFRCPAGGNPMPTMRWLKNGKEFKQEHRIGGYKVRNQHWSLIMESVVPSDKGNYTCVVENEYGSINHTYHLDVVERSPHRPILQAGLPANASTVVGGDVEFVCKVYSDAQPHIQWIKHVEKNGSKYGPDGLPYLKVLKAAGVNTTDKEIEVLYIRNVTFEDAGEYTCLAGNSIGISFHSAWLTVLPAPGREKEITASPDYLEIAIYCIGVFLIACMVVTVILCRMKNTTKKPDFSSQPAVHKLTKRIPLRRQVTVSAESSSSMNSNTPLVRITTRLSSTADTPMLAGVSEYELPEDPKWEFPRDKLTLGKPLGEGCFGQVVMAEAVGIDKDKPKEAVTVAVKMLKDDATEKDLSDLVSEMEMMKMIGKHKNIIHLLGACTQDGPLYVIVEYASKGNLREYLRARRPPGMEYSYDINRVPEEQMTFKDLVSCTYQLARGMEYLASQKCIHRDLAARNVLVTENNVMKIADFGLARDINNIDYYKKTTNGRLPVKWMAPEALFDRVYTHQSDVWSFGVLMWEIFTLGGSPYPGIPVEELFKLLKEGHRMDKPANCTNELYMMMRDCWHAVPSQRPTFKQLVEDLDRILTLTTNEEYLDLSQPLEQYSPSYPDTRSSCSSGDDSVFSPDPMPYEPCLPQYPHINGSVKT
CYP3A4, sequence (P08684 whole entry): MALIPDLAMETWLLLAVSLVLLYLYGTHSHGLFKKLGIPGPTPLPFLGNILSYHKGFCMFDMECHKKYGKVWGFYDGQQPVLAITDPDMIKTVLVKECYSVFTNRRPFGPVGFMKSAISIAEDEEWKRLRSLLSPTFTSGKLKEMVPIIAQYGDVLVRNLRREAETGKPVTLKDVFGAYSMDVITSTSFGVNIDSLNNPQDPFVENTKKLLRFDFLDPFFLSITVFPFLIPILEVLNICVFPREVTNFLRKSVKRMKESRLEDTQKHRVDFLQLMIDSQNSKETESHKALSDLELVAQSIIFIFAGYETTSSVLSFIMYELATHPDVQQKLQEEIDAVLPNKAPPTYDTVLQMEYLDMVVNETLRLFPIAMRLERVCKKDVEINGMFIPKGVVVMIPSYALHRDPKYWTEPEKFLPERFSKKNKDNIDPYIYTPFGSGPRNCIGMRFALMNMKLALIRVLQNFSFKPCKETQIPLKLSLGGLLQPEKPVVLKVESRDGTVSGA
FGFR3 mutant (V555M), sequence (P22607 23-806 V555M): as the sequence (P22607 23-806 K650E) above, with V533M, E628K counted along it
FGFR2 mutant (V564F), sequence (P21802 22-821 V564F): as the sequence (P21802 22-821 N549H) above, with H528N, V543F counted along it
FGFR3 mutant (K650M), sequence (P22607 23-806 K650M): as the sequence (P22607 23-806 K650E) above, with E628M counted along it
FGFR3, sequence (P22607 23-806): as the sequence (P22607 23-806 K650E) above, with E628K counted along it
CYP2C9, sequence (P11712 whole entry): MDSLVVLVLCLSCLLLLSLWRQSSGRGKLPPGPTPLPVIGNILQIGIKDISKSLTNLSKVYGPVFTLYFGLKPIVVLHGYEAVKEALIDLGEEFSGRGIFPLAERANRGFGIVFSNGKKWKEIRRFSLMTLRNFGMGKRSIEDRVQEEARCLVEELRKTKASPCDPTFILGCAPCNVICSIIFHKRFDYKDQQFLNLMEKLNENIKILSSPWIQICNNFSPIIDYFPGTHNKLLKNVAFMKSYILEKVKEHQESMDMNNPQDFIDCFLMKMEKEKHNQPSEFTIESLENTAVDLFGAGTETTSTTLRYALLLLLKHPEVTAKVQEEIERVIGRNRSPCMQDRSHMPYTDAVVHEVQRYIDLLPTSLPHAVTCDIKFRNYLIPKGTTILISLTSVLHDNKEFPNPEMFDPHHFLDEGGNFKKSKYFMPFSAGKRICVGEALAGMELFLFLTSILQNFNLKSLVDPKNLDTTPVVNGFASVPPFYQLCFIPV

Compound	GI50 [2] [µM]	GI50 (AN3-CA) [µM]	GI50 [3] [µM]	GI50 [4] [µM]	GI50 [5] [µM]	remaining (%) after reaction with the microsome, Human (Microsomal stability [6]) [%]	remaining (%) after reaction with the microsome, Dog (Microsomal stability [7]) [%]	remaining (%) after reaction with the microsome, Rat (Microsomal stability [8]) [%]	rate (%) of inhibition, CYP3A4 (CYP3A4) [%]	rate (%) of inhibition, CYP1A2 (CYP1A2) [%]	rate (%) of inhibition, CYP2D6 (CYP2D6) [%]	rate (%) of inhibition, CYP2C19 (CYP2C19) [%]	remaining (%) after reaction with the microsome, Mouse (Microsomal stability [9]) [%]	IC50 (FGFR2 mutant (V564F)) [µM]	IC50 (FGFR2 mutant (N549H)) [µM]	IC50 (FGFR3 mutant (K650M)) [µM]	IC50 (FGFR3 mutant (V555M)) [µM]	IC50 (FGFR3 mutant (K650E)) [µM]	also measured
CCN1CCN(c2ccc(Nc3cc(N(C)C(=O)Nc4c(Cl)c(OC)cc(OC)c4Cl)ncn3)cc2)CC1 [3-(2,6-dichloro-3,5-dimethoxyphenyl)-1-6-[4-(4-ethyl-piperazin-1-yl)phenylamino]pyrimidine-4-yl-1-methyl urea]																			inhibitory activity against FGFR3 (FGFR3): selective inhibitory activity; anticancer activity against the RT112 bladder cancer cell line [1]: effective anticancer activity
COc1cc(OC)c(Cl)c(Nc2ncccc2-c2ncnc(Nc3cnn(C4CCN(C(C)C)CC4)c3)n2)c1Cl [Example 22]	< 1	< 1	< 1	< 1	< 1	21.8	8.3	7.7	17.6	75.9	81.0	44.6	11.5	0.1 to 1	< 0.1	< 0.1	< 0.1	< 0.1	remaining (%) after reaction with the microsome, Human (Microsomal stability [6]; listed as Compound No. 22): 21.8%; remaining (%) after reaction with the microsome, Dog (Microsomal stability [7]; listed as Compound No. 22): 8.3%; remaining (%) after reaction with the microsome, Rat (Microsomal stability [8]; listed as Compound No. 22): 7.7%; rate (%) of inhibition, CYP2C9 (CYP2C9): 79.1%; remaining (%) after reaction with the microsome, Mouse (Microsomal stability [9]; listed as Compound No. 22): 11.5%
COc1cc(OC)c(Cl)c(Nc2ncccc2-c2ncnc(Nc3cnn(C4CCNCC4)c3)n2)c1Cl [Example 24, 4-(2-((2,6-dichloro-3,5-dimethoxyphenyl)amino)pyridin-3-yl)-N-(1-(piperidin-4-yl)-1H-pyrazol-4-yl)-1,3,5-triazin-2-amine]	< 1	< 1	1 to 10	1 to 10	< 1	62.6	66.9	65.4	44.1	72.8	>100	51.0	62.1	0.1 to 1	< 0.1	< 0.1	0.1 to 1	< 0.1	Cmax [10]: 153 ng/mL; MRT inf [10]: 7.94 h; Tmax [10]: 0.42 h; half-life [10]: 4.83 h; remaining (%) after reaction with the microsome, Human (Microsomal stability [6]; listed as Compound No. 24): 62.6%; remaining (%) after reaction with the microsome, Dog (Microsomal stability [7]; listed as Compound No. 24): 66.9%; remaining (%) after reaction with the microsome, Rat (Microsomal stability [8]; listed as Compound No. 24): 65.43%; remaining (%) after reaction with the microsome, Mouse (Microsomal stability [9]; listed as Compound No. 24): 62.1%
